Test results published in patent US7153883B2, “Carboxylic acids and carboxylic acid isosteres of N-heterocyclic compounds” (GPI NIL Holdings Inc., priority 1998, dated 2006).
Each block holds one compound with its values, some of them ahead of it.

What was measured:
Clearance = format: in vitro ADME
[1] = tested on: retinal ganglion cell axons; assay: Protection of retinal ganglion cell axons 14 days after optic nerve transection (RT97); format: in vivo, Sprague Dawley rats; details: ± SEM
Excerpt: Efficacy of representative compounds from different immunophilin ligand series in protecting retinal ganglion cell axons from degeneration following optic nerve transection is set forth in Table VI.

Rotamase = Rotamase (Homo sapiens, UniProt P62942); assay: Rotamase inhibition; format: biochemical; details: read-out: K1 Rotamase
Rotamase, sequence (P62942 2-108 limits assumed): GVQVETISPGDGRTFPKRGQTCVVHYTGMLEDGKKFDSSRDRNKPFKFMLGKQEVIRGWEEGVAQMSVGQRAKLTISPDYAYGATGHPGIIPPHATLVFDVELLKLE

dopaminergic neurons = assay: MPTP model of Parkinson's Disease in mice (TH immunostaining); format: in vivo, CD1 white mice; details: Mus musculus, Neuron, po; 10 mg/kg p.o.; MPTP-lesioned mice; read-out: Post-MPTP % TH RECOVERY
Procedure: MPTP lesioning of dopaminergic neurons in mice was used as an animal model of Parkinson's Disease. Four week old male CD1 white mice were dosed i.p. with 30 mg/kg of MPTP for 5 days. […] At 18 days following MPTP treatment, the animals were sacrificed and the striata were dissected and homogenized. Immunostaining was performed on saggital and coronal brain sections using anti-tyrosine hydroxylase Ig to quantitate survival and recovery of dopaminergic neurons. In animals treated with MPTP and vehicle, a substantial loss of functional dopaminergic terminals was observed as compared to non-lesioned animals. In another protocol, test compounds were administered only subsequent to MPTP-induced lesioning. Thus, after animals were treated with MPTP for 5 days, an additional 3 days passed before beginning oral drug treatment on day 8. […] On day 18, the animals were sacrificed and analyzed as described above.
Table V presents the percent recovery of dopaminergic neurons in the first (concurrent dosing) paradigm in animals receiving carboxylic acid or carboxylic acid isostere compounds of the present invention.
Percent striatal innervation density was quantitated in brain sections with an anti-tyrosine hydroxylase immunoglobulin, which is indicative of functional dopaminergic neurons. The striatal innervation density of 23% for animals pretreated with only a vehicle and administered a vehicle orally during treatment, is indicative of normal non-lesioned striatal tissue. Striatal innervation density is reduced to 5% for animals pretreated with MPTP and administered a vehicle orally during treatment, and is indicative of MPTP-induced lesioning.

retinal ganglion cells = assay: Retinal ischemia: ganglion cell, optic nerve axon and myelin degeneration; format: in vivo, rats
Excerpt: Retinal ganglion cells were retrogradely labeled in adult rats by bilateral injection of fluorogold in their lateral geniculate nuclei. Labeled ganglion cells in the normal rat retina appear as white profiles against the dark background (FIG. 4A). Complete retinal ischemia was produced by infusing normal saline solution into the retinal vitreous cavity of each eye until the intraocular pressure exceeded arterial blood pressure. 28 days after the ischemic episode extensive degeneration of retinal ganglion cell was evidenced by massive reduction in the density of fluorogold labeled cells (FIG. 4B).

spatial memory = assay: Morris watermaze spatial learning and memory in aged rodents; format: in vivo, C57BL/6N-Nia mice; details: 10 mg/kg daily, retention testing after 3 weeks of dosing; aged impaired mice
Excerpt: The Morris watermaze is widely used for assessing spatial memory formation and retention in experimental animals. The test depends on the animal's ability to utilize spatial visual information in order to locate a submerged escape platform in a water tank. It is important that the tank itself be as devoid of specific visual features as possible—thus, it is always circular in shape, the sides are kept smooth and in uniform dull colors, and the water is rendered opaque with nontoxic watercolour pigment or powdered milk. This is to ensure that the animal navigates only by the use of more distant visual cues, or by the use of intra-maze cues specifically provided by the experimenter. The animals' path, speed, and swim time are tracked with a ceiling camera for later computerized analysis. Over the course of several successive trials, spatial learning can therefore be defined as a drop of distance swum, or time elapsed, from placement in the tank until escape onto the invisible platform. The procedure involved using three-month old (young) and 18–19 month old male C57BL/6N-Nia (aged) mice which habituated to the well known and conventional Morris watermaze during a 4 trials/day, 3–4 day visible platform training phase. […] Swim Distances (cm) were analyzed in a 7×5 ANOVA including Groups and Blocks (1–5) as factors in the analysis, treating Blocks as a repeated measure.

[2] = tested on: retinal ganglion cells and optic nerve axons; assay: Optic nerve transection: retinal ganglion cell survival, optic nerve axons and myelin 90 days after transection; format: in vivo, Sprague Dawley rats
Excerpt: Transection of the mammalian optic nerve results in a brief period of abortive regeneration, but the majority of axotomized neurons die and the axons from many persisting ganglion cells die back beyond the optic nerve head. […]
All eyes and optic nerves stumps were removed.

retina = assay: Streptozotocin induced diabetes: retinal neovascularization and neuron loss; format: in vivo; details: 28 day treatment beginning 8 weeks after onset of diabetes
hair growth = assay: In vivo hair generation test with C57 Black 6 mice; details: topical, 1 μmole per milliliter three times per week, evaluated after 14 days
Procedure: Care was taken not to nick or cause abrasion to the underlaying dermal layers. The animals were in anagen growth phase, as indicated by the pinkish color of the skin. Referring now to FIG. 2, four animals per group were treated by topical administration with 20% propylene glycol vehicle (FIG. 2), or neuroimmunophilin FKBP ligands dissolved in the vehicle. The animals were treated with vehicle or neuroimmunophilin ligands every 48 hours (3 applications total over the course of 5 days) and the hair growth was allowed to proceed for 6 weeks. Hair growth was quantitated by the percent of shaved area covered by new hair growth during this time period.
Care was taken not to nick or cause abrasion to the underlying dermal layers. Compounds at a concentration of 1 μmole per milliliter were carefully applied to the shaved area of the mice (5 mice per group) three times per week. Hair growth was evaluated 14 days after initiation of drug treatment. The relative scale for assessing hair growth is as follows: • 0=no growth; • 1=beginning of growth in small tufts; • 2=hair growth covering over <25% of shaved area; • 3=hair growth covering over >25% of shaved area, but less than 50% of shaved area; • 4=hair growth covering over >50% of shaved area, but less than 75% of shaved area; • 5=complete hair growth of shaved area.

[3] = 28 days after 1 hour retinal ischemic episode
[4] = 10 mg/kg/day s.c. for 28 days, 90 days after transection
[5] = treatment first 14 days, 90 days after transection
[6] = treatment first 28 days, 90 days after transection

Clearance (Clearance): 41.8 µL/min
SMILES: CCC(C)(C)C(=O)C(=O)N1CCCCC1C(=O)OC(CCc1ccccc1)CCc1ccccc1 (centres unmarked) [E]

Clearance (Clearance): 4.5 µL/min
SMILES: CCC(C)(C)C(=O)C(=O)N1CCCC[C@H]1C(=O)SCCC(c1ccccc1)c1ccccc1 [K]

SMILES: O=C(SCCCc1ccccc1)[C@@H]1CCCN1S(=O)(=O)Cc1ccccc1 [C]
Clearance (Clearance): 31.1 µL/min | RT97 + RGC axon density 14 days after ON transection (% ON axons rescued) [1]: 60.4%±3.1%SEM

SMILES: CCC(C)(C)C(=O)C(=O)N1CCC[C@H]1C(=O)O [L]
Clearance (Clearance): 5.2 µL/min | RT97 + RGC axon density 14 days after ON transection (% ON axons rescued) [1]: 7.8%±3.0%SEM

SMILES: CCC(C)(C)C(=O)C(=O)N1CCC[C@H]1C(=O)SCCC(c1ccccc1)c1ccccc1 [M]
Clearance (Clearance): 12.5 µL/min | RT97 + RGC axon density 14 days after ON transection (% ON axons rescued) [1]: −6.3%±3.9%SEM

Ki (Rotamase): 272 nM
SMILES: CCC(C)(C)C(=O)C(=O)N1CCSC1C(=O)OCCCc1cccnc1 (centres unmarked) [F]

Clearance (Clearance): 1.5 µL/min
SMILES: CCC(C)(C)C(=O)C(=O)N1CCC[C@H]1C(=O)CCCCc1cccnc1 [J]

SMILES: CCC(C)(C)C(=O)C(=O)N1CCC[C@H]1c1nnn[nH]1 [Compound 30, (2S)-1-(1,2-dioxo-3,3-dimethylpentyl)-2-pyrrolidinetetrazole]
percent TH recovery after MPTP at 10 mg/kg (dopaminergic neurons): 19.6%

melting point: 72 to 74 °C
SMILES: CCC(C)(C)C(=O)C(=O)N1CCC[C@H]1C(=O)NNC(=O)c1cccs1 [Compound 140, [1-(3,3-Dimethyl-2-oxopentanoyl)pyrrolidin-2-yl]-N-(2-thienylcarbonylamino)-formamide]
percent TH recovery after MPTP at 10 mg/kg (dopaminergic neurons): 10.4%

SMILES: CCC(C)(C)C(=O)C(=O)N1CCC[C@H]1C(=O)OCCCc1cccnc1 [GPI 1046]
protection of vulnerable ganglion cell population (retinal ganglion cells; 10 mg/kg s.c. 1 hour prior to ischemia and 10 mg/kg/day next four days, 28 days after ischemia): noticeable protection of a large proportion | density of degenerating myelin figures (retinal ganglion cells; [3]): dramatically decreased | optic nerve axon degeneration (retinal ganglion cells; [3]): protected the majority of optic nerve axons from degeneration | Clearance (Clearance): 63.8 µL/min | spatial memory performance (retention testing, swim distance) (spatial memory): significantly enhanced spatial memory performance | axons of protected neurons in the proximal stump [2, 4]: preserved the axons of virtually all protected neurons | ganglion cell population spared [2, 4]: 25% | density of large, medium and small caliber optic nerve axons ([2]; 28 day treatment): significant increase | density of myelin, distal stump ([2]; treatment first 14 days): slightly increase the density of myelin | shrinkage of the distal stump ([2]; treatment first 14 days): did not protect against shrinkage of the distal stump | protection of optic nerve axons, proximal stump [2, 5]: 5.3% | recovery in myelin density, proximal stump [2, 5]: 1.6% | cross sectional shrinkage of the distal stump ([2]; treatment first 28 days): prevented cross sectional shrinkage | protection of the vulnerable ganglion cell population ([2]; treatment first 28 days after transection, 90 days after transection): 12.6% | myelin levels in distal stump, % of normal levels [2, 6]: 99% | recovery of myelin density, proximal stump [2, 6]: 70% | density of retinal ganglion cells that survived ([2]; treatment for 14 days, 90 days after transection): small but not significant increase | spared retinal ganglion cells with protected optic nerve axons ([2]; treatment for 28 days, 90 days after transection): 81.4% | RT97 + RGC axon density 14 days after ON transection (% ON axons rescued) [1]: 60.5%±3.9%SEM | neovascularization in the PR, ONL, OPL and INL (retina): reduced neovascularization | neuronal loss in the ONL (retina): did not appear to protect against neuronal loss in the ONL | loss of neurons in the INL and GCL (retina; vs streptozotocin/vehicle): appeared to decrease the loss of neurons

SMILES: CCC(C)(C)C(=O)C(=O)N1CCC[C@H]1c1nnc(S)[nH]1 [Compound 148, (2S)-3,3-Dimethyl-1-[2-(5-sulfanyl(4H-1,2,4-triazol-3-yl))pyrrolidinyl]-pentane-1,2-dione]
percent TH recovery after MPTP at 10 mg/kg (dopaminergic neurons): 21.4%

melting point: 59 to 61 °C
SMILES: CCC(C)(C)C(=O)C(=O)N1CCC[C@H]1C(=O)NNS(=O)(=O)c1ccc(C)cc1 [Compound 146, [1-(3,3-Dimethyl-2-oxopentanoyl)pyrrolidin-2-yl]-N-{[(4-methylphenyl)sulfonyl]-amino}formamide]
percent TH recovery after MPTP at 10 mg/kg (dopaminergic neurons): 40.6%

SMILES: CCC(C)(C)C(=O)C(=O)N1CCC[C@H]1C#N [Compound 29, (2S)-1-(1,2-dioxo-3,3-dimethylpentyl)-2-pyrrolidinecarbonitrile]
percent TH recovery after MPTP at 10 mg/kg (dopaminergic neurons): 34.1%

Clearance (Clearance): 21.9 µL/min
SMILES: CN(C)C(=O)N1CCC[C@H]1C(=O)SCCCc1ccccc1 [N]

SMILES: CCC(C)(C)C(=O)C(=O)N1CCC[C@H]1C(=O)O [Compound 137, (2S)-1-(1,2-dioxo-3,3-dimethylpentyl)-2-pyrrolidinecarboxylic acid]
percent TH recovery after MPTP at 10 mg/kg (dopaminergic neurons): 26.7% | hair growth on shaved area (hair growth): dramatic hair growth

SMILES: CCC(C)(C)C(=O)C(=O)N1CCC[C@H]1COc1ccc([N+](=O)[O-])cc1 [Compound 141, 3,3-Dimethyl-1-{2-[(4-nitrophenoxy)methyl]pyrrolidinyl}pentane-1,2-dione]
percent TH recovery after MPTP at 10 mg/kg (dopaminergic neurons): 26.3%

Clearance (Clearance): 8.0 µL/min
SMILES: O=C(OCCCc1cccnc1)[C@@H]1CCCN1C(=S)NC1CCCCC1 [I]

SMILES: CCC(C)(C)C(=O)C(=O)N1CCCC[C@H]1C(N)=O [Compound 35, (2S)-1-(1,2-dioxo-3,3-dimethylpentyl)-2-aminocarbonyl piperidine]
percent TH recovery after MPTP at 10 mg/kg (dopaminergic neurons): 46.5% | hair growth on shaved area (hair growth): dramatic hair growth

melting point: 57 to 60 °C
SMILES: CCC(C)(C)C(=O)C(=O)N1CCC[C@H]1C(=O)NNS(=O)(=O)c1ccc(F)cc1 [Compound 147]

SMILES: CCC(C)(C)C(=O)C(=O)N1CCC[C@H]1CO [Compound 26, (2S)-1-(1,2-dioxo-3,3-dimethylpentyl)-2-hydroxymethyl pyrrolidine]
percent TH recovery after MPTP at 10 mg/kg (dopaminergic neurons): 23.2%

melting point: 91 to 93 °C
SMILES: CCC(C)(C)C(=O)C(=O)N1CCC[C@H]1CC#N [Compound 28, 2-[1-(3,3-Dimethyl-2-oxopentanoyl)pyrrolidin-2-yl]ethanenitrile]
percent TH recovery after MPTP at 10 mg/kg (dopaminergic neurons): 15.7%
